Experiment [1] concerns MCF7 ESR1 Y537N mutant cells. The experiment is described as follows: Cell proliferation assay in MCF7-ESR1 Y537N-682. It counts as cell-based, human. As to conditions: seven days, read-out: Relative IC50 (μM) MCF7 ESR1 Y537N mutant cells. As for the experimental part: (§1) Seed MCF7 (purchased from ATCC HTB-22) cells at a density of 2,000 cells per well in DMEM phenol red free media 10% FBS (20 μL volume) (charcoal stripped) into a clear bottom 384-well cell culture plate. Plate MCF7-ESRY537N-682 (generated by CRISPR/Cas9 gene editing of ESr1 gene in MCF7 cells, clone #682) in DMEM media supplemented with 10% FBS, and 1% penicillin/streptomycin antibiotics at a density of 1000 cells per well. Incubate the plates at 37° C. and 5% CO2. The following day dose the cells with the test compound. Use an Echo 555 acoustic dispenser to prepare test compound serial dilutions (1:3) in a range from 60 μM to 0.003 μM. Dose the cells with the addition of 5 μL from the serial dilution plate to the cell plate, producing a final DMSO concentration of 0.2% with a final test compound concentration dose range between 20 and 0.001 μM. For the maximum point use media containing 0.2% of DMSO and for the minimum point use fulvestrant diluted at 2 μM final concentrations in the growth media containing 0.2% DMSO. After dosing with the test compound, incubate the cell plates at 37° C. and 5% CO2. Seven days after test compound addition, remove the plates from the incubator and add cold EtOH 96% (65 μL) to each well. […] Seal the plates and incubate 1 hour at room temperature on the bench (preserved from light). Scan the plates with ACUMEN EXPLORER™ [Laser-scanning fluorescence microplate cytometer manufactured by TTP LABTECH LTD].

The next experiment has as its target ERα (Homo sapiens (Human), UniProt P03372). The experiment is described as follows: PRα induction assay in MCF7 cells. As to conditions: MCF7 breast cancer cells. It is filed as cell-based. As for the experimental part:
The purpose of the following PRα induction assay is to determine whether a test compound has agonistic activity against ERα receptor (an agonist would be expected to activate the receptor).
Culture MCF7 (purchased from ATCC HTB-22) in DMEM media supplemented with 10% FBS, 0.01 mg/mL human insulin 1 and 1% penicillin/streptomycin antibiotics and plate the cells (prior to becoming 70% confluent) in 384-well flat-bottom plates at a density of 4,000 cells per well in 20 μL volume in DMEM phenol red free media containing 10% FBS (charcoal stripped). Incubate the cells overnight in a cell culture incubator (5% CO2, 95% relative humidity at 37° C.) and allow the cells to attach to the plate. The following day, dose the cells with test compound. Use an Echo 555 acoustic dispenser to prepare compound serial dilutions (1:3) in a range from 6 μM to 0.0003 μM. Dose the cells with the addition of the test compound (5 μL) from the serial dilution plate to the cell plate producing a final DMSO concentration of 0.2% with a final concentration of the test compound dose range between 2 and 0.0001 μM. For the maximum point use media containing 0.2% of DMSO and for the minimum point, use fulvestrant diluted at 2 μM final concentrations in the growth media containing 0.2% DMSO. After dosing with the test compound, incubate the cell plates at 37° C. and 5% CO2 for 24 hours. Fix the cells by adding 14% para-formaldehyde (10 μL) for 30 minutes at room temperature. Wash cells once with PBS (20 μL) and incubate with PBS (20 μL) containing 0.5% (v/v) TWEEN® 20 for 1 hour. Wash cells twice with PBS (20 μL) containing 0.05% TWEEN® 20 and block with 3% BSA in PBS containing 0.05% TWEEN® 20 and 0.1% TRITON™ X-100 (20 μL/well) for 1 hour at room temperature. […]
The following day, wash cells with PBS 0.05% TWEEN® 20 (2×20 μL) and incubate with secondary antibody (20 μL/well) (1:1000 dilution, Goat anti-rabbit IgM ALEXA FLUOR™ 488) in PBS 1% BSA for 105 minutes at room temperature. […] Scan plates with ACUMEN EXPLORER™ [Laser-scanning fluorescence microplate cytometer manufactured by TTP LABTECH LTD] to measure PRα. […]

A further experiment deals with MCF7 ESR1 wild type. The experiment is described as follows: Cell proliferation assay in MCF7. As to conditions: seven days, read-out: Relative IC50 (μM) MCF7 ESR1 wild type. It counts as cell-based, human. On the procedure: as §1
The test system of experiment [2] is MCF7 ER-positive breast cancer model. The experiment can be described thus: In vivo combination studies in MCF7 ER-positive breast cancer xenograft model. Further details: species or system mice. To be noted: Example 10 15 mpk; for Difference (Treatment 1 − Treatment 2): Treatment 1 = Vehicle, log10 tumor volume, QD × 42, PO. The source says: Otherwise, the statistical conclusion is additive.

A word on the IC50: it is the midpoint of a concentration-inhibition curve.

Each structure is given as a SMILES string. Read-outs that look alike come from different tables or passages of the source.

ERα, sequence (P03372 whole entry): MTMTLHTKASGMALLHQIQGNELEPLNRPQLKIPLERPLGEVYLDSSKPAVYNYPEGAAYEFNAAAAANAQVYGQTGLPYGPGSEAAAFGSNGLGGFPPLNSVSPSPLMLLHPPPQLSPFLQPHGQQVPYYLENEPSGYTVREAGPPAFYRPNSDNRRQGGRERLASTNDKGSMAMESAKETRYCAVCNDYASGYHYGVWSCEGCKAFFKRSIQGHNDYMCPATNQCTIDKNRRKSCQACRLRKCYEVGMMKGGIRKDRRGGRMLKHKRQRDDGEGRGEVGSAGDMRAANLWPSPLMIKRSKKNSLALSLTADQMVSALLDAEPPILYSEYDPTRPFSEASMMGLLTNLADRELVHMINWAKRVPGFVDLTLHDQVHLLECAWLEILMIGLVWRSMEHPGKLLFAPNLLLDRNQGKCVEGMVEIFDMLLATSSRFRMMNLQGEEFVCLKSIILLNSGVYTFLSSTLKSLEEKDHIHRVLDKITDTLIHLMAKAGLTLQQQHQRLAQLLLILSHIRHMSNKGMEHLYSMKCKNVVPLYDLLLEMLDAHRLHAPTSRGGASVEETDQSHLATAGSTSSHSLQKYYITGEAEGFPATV

As for `Oc1ccc2c3c(cnc2c1)-c1ccc(C(F)(F)F)cc1OC3c1ccc(OCCN2CC(CF)C2)cc1` (racemic) [Example 1, 5-(4-{2-[3-(Fluoromethyl)azetidin-1-yl]ethoxy}phenyl)-8-(trifluoromethyl)-5H-[1]benzopyrano[4,3-c]quinolin-2-ol], the IC50 in experiment [1] (Homo sapiens, MCF7, […]) worked out at 0.0321 ± 0.0068 µM; in the experiment on MCF7 ESR1 wild type (Homo sapiens, MCF7, […]), 0.00768 ± 0.0126 µM. On ERα, the agonistic activity entry is recorded as “no significant agonistic activity”.
With `Oc1ccc2c3c(cnc2c1)-c1ccc(C(F)(F)F)cc1OC3c1ccc(OCCN2CC(CF)C2)cc1` (single isomer, unassigned) [Example 1A, 5-(4-{2-[3-(Fluoromethyl)azetidin-1-yl]ethoxy}phenyl)-8-(trifluoromethyl)-5H-[1]benzopyrano[4,3-c]quinolin-2-ol], the IC50 in experiment [1] stood at 1.86 ± 1.03 µM. For the same molecule, the agonistic activity result on ERα is listed as “no significant agonistic activity”.
On to `Cc1ccc(S(=O)(=O)O)cc1.Oc1ccc2c3c(cnc2c1)-c1ccc(C(F)(F)F)cc1OC3c1ccc(OCCN2CC(CF)C2)cc1` (single isomer, unassigned; isomer 2) [Example 10, 5-(4-{2-[3-(Fluoromethyl)azetidin-1-yl]ethoxy}phenyl)-8-(trifluoromethyl)-5H-[1]benzopyrano[4,3-c]quinolin-2-ol, 4-methylbenzenesulfonic acid, Isomer 2], for which the concentration for half-maximal inhibition (IC50) in experiment [1] was determined as 0.0106 µM; in the experiment on MCF7 ESR1 wild type, 0.00438 µM. In addition, the “Delta T/C % or % Regression” value is −51% in experiment [2] (Abemaciclib 50 mpk, QD × 42, PO (Table 20)); −51% in experiment [2] (Everolimus 5 mpk, QD × 42, PO (Table 24)); −51% in experiment [2] (alpelisib 15 mpk (d1-d7), 10 mpk (d8-42), QD × 42, PO (Table 22)). The “Difference (Treatment 1 − Treatment 2)” value turned out to be 0.659 in experiment [2] (Abemaciclib 50 mpk); 0.445 in experiment [2] (Everolimus 5 mpk); 0.241 in experiment [2] (alpelisib 15 mpk (d1-d7), 10 mpk (d8-42)).

Values taken from patent publication US10654866B2, “Selective estrogen receptor degraders” (Eli Lilly and Company, priority 2018, dated 2020).
